From paper PMC6430017, “Structural and chemical insights into the covalent-allosteric inhibition of the protein kinase Akt” (Chemical Science, 2019)

Experiments:
Assay in all cases: SelectScreen Z'LYTE kinase profiling
Type in all cases: biochemical
Details in all cases: ATP at apparent KM
[1] = biological target: T1, FLT3 (Homo sapiens, UniProt P36888)
T1 sequence (P36888 27-993): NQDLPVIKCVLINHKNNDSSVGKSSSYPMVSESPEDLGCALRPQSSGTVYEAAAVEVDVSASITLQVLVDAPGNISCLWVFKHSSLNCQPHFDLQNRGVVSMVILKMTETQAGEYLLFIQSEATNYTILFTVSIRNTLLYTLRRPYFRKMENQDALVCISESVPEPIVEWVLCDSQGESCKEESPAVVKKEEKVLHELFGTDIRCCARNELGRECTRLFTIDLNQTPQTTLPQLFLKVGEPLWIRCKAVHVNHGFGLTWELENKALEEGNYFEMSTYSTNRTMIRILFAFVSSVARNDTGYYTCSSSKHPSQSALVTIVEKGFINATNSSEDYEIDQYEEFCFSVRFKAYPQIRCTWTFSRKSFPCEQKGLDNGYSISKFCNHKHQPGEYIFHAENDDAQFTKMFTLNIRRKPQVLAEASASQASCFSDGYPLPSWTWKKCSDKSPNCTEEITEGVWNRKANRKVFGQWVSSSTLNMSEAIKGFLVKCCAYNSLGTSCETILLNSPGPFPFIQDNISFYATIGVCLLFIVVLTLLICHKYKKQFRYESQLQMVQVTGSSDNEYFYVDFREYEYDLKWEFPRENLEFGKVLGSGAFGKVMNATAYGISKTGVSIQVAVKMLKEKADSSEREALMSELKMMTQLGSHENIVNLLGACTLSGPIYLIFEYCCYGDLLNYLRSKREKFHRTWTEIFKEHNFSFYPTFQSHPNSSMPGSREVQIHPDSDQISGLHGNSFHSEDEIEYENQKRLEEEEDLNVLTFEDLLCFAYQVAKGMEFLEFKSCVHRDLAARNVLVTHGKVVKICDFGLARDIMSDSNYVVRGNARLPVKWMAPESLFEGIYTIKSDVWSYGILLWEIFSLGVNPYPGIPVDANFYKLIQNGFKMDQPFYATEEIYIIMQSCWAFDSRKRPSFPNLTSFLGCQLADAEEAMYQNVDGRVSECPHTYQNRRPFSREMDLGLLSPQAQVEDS
Description: (§1) protein kinases at a compound concentration of 1 µM. Measurements were performed in duplicates
(§2) and at the particular apparent ATP KM of each individual kinase employing the activity based Z’LYTE®
(§3) kinase assay of the SelectScreen® Kinase Profiling Services (ThermoFisher Scientific).
(§4) kinases at a compound concentration of 1 µM. Measurements were performed in duplicates and at
(§5) the particular apparent ATP KM of each individual kinase employing the activity based Z’LYTE® kinase
(§6) assay of the SelectScreen® Kinase Profiling Services (ThermoFisher Scientific).

[2] = biological target: CDC42 BPB (MRCKB) (Homo sapiens, UniProt Q9Y5S2)
Description: as §1, §2, §3, §4, §5, §6

[3] = biological target: TEK (Tie2) (Homo sapiens, UniProt Q02763)
Description: as §1, §2, §3, §4, §5, §6

[4] = biological target: T2, SGKL (SGK3) (Homo sapiens, UniProt Q96BR1)
T2 sequence (Q96BR1 1-496): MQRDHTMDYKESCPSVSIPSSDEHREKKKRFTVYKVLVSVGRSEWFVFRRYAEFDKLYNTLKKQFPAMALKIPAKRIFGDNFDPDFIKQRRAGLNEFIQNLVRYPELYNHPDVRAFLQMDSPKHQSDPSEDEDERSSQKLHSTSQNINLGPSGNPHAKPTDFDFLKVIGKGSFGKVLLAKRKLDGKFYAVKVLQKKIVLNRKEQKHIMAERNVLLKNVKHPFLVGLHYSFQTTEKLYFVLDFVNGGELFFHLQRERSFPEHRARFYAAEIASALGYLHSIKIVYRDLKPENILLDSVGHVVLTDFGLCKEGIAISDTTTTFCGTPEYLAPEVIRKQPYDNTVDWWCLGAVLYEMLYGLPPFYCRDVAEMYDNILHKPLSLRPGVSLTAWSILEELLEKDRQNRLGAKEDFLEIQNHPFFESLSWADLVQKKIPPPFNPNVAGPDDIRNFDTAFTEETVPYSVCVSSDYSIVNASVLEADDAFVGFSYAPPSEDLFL
Description: as §1, §2, §3, §4, §5, §6

[5] = biological target: PRKCH (PKC eta) (Homo sapiens, UniProt P24723)
Description: as §1, §2, §3, §4, §5, §6

[6] = biological target: MARK2 (Homo sapiens, UniProt Q7KZI7)
Description: as §1, §2, §3, §4, §5, §6

[7] = biological target: T3, PRKCZ (PKC zeta) (Homo sapiens, UniProt Q05513)
T3 sequence (Q05513 1-592): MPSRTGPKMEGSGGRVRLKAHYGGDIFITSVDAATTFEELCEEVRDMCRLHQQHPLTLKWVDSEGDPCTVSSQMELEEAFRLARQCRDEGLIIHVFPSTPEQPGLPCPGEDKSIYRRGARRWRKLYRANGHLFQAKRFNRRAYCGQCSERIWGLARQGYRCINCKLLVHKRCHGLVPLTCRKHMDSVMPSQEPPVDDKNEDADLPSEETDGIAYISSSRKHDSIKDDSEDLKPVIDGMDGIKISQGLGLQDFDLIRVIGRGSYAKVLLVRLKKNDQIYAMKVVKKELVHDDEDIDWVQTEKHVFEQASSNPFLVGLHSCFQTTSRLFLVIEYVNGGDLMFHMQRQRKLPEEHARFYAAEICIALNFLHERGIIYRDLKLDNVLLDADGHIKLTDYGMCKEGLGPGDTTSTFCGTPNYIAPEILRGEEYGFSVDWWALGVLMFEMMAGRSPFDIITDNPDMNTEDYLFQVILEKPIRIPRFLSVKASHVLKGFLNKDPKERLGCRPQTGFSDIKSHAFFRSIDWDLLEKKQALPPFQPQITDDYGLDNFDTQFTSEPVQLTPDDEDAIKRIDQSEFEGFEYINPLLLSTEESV
Description: as §1, §2, §3, §4, §5, §6

[8] = biological target: RPS6KA3 (RSK2) (Homo sapiens, UniProt P51812)
RPS6KA3 (RSK2), sequence (P51812 whole entry): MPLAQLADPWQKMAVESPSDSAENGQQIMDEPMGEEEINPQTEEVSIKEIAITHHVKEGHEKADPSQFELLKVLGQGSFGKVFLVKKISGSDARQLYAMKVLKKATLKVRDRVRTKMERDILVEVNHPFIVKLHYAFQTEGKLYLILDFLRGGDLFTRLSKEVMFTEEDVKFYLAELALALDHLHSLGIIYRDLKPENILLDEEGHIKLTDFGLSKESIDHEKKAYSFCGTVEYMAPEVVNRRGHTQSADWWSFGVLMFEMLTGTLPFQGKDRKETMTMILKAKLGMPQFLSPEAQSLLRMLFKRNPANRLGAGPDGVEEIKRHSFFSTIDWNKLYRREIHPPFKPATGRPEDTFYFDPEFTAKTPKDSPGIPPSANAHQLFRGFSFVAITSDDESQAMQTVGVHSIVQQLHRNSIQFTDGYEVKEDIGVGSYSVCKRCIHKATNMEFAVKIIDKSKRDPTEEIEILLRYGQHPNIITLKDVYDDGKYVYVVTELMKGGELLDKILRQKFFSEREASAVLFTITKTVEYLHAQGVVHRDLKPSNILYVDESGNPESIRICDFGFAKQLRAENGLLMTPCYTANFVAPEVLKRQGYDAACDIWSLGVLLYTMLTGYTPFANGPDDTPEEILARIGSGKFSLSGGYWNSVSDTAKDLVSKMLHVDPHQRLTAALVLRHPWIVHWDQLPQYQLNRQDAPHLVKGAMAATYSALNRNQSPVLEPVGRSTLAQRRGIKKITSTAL
Description: as §1, §2, §3, §4, §5, §6

PRKCH (PKC eta), sequence (P24723 whole entry): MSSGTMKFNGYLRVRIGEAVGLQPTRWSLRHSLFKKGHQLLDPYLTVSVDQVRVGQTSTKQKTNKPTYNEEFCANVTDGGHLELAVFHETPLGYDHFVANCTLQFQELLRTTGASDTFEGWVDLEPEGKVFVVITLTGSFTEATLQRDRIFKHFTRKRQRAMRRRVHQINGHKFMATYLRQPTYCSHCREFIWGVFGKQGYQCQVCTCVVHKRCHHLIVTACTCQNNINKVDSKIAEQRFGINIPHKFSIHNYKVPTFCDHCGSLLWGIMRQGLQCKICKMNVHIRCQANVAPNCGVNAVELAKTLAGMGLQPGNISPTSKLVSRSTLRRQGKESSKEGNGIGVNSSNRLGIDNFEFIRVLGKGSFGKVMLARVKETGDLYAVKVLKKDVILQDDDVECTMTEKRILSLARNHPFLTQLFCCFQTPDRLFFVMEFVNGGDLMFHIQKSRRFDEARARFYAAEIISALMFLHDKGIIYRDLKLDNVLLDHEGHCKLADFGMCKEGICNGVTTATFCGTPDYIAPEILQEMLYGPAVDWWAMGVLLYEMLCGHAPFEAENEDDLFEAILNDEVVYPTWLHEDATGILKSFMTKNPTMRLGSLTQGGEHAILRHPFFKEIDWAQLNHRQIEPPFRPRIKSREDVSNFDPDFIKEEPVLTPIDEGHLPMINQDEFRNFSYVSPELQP
CDC42 BPB (MRCKB), sequence (Q9Y5S2 whole entry): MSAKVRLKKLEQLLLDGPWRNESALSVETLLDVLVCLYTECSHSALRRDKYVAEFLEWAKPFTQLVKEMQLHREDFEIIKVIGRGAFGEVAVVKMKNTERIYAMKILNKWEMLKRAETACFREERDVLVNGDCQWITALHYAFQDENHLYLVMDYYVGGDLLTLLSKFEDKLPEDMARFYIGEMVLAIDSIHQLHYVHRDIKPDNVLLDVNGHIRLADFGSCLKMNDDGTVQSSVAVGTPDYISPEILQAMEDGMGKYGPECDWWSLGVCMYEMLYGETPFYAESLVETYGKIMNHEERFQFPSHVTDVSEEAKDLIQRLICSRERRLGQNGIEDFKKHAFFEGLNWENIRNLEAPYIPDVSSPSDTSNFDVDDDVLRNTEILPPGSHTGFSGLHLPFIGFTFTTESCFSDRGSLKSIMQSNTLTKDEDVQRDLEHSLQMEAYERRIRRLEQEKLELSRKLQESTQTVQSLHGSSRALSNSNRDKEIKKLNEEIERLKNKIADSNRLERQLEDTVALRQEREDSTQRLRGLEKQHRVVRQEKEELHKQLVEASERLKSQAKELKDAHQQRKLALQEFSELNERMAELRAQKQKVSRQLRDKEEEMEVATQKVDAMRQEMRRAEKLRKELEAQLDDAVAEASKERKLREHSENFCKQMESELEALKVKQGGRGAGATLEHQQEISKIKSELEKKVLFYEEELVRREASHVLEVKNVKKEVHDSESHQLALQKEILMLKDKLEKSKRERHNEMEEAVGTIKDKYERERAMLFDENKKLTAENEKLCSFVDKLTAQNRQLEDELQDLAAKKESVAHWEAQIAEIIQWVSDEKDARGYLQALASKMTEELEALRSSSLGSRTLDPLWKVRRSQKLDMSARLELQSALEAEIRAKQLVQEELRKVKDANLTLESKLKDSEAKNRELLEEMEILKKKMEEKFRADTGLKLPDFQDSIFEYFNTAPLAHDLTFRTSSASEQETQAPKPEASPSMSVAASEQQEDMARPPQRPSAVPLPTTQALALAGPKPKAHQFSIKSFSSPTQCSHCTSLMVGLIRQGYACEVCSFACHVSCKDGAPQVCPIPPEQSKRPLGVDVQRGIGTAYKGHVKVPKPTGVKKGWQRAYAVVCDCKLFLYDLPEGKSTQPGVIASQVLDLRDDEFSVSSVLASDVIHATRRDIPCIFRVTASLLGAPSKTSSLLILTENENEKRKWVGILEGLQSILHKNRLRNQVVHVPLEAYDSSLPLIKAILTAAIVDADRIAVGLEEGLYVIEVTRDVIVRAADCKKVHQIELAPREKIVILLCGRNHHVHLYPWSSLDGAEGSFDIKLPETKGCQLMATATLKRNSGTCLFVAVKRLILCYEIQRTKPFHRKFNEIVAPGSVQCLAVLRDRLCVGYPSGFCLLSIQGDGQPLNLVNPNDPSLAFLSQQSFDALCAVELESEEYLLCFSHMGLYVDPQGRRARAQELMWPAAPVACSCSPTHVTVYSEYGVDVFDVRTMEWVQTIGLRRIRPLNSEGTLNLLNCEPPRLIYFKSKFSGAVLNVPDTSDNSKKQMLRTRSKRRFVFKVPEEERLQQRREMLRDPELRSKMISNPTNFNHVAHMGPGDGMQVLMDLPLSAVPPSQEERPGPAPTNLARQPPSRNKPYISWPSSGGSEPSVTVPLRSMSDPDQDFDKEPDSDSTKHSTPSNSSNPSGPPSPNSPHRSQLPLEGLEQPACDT
MARK2, sequence (Q7KZI7 whole entry): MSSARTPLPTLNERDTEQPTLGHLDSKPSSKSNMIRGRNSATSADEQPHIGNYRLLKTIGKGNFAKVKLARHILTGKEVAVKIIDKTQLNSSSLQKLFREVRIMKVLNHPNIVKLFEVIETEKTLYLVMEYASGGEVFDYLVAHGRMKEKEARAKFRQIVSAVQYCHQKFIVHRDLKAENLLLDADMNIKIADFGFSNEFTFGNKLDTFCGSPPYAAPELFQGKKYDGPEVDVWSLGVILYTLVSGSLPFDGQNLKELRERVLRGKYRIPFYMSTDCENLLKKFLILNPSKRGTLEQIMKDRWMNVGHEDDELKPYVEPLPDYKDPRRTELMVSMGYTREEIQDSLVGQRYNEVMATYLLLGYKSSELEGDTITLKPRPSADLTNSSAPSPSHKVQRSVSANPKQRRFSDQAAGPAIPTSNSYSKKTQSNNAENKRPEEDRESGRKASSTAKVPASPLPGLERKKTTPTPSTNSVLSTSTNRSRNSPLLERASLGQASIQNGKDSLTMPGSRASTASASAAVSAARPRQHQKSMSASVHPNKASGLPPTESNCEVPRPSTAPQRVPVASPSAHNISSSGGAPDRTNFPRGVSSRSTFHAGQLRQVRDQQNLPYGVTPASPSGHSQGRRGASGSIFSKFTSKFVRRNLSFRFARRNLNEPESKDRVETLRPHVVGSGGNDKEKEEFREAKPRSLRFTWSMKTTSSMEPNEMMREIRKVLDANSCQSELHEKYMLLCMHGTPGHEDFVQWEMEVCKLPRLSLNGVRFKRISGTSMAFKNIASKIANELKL
TEK (Tie2), sequence (Q02763 23-1124): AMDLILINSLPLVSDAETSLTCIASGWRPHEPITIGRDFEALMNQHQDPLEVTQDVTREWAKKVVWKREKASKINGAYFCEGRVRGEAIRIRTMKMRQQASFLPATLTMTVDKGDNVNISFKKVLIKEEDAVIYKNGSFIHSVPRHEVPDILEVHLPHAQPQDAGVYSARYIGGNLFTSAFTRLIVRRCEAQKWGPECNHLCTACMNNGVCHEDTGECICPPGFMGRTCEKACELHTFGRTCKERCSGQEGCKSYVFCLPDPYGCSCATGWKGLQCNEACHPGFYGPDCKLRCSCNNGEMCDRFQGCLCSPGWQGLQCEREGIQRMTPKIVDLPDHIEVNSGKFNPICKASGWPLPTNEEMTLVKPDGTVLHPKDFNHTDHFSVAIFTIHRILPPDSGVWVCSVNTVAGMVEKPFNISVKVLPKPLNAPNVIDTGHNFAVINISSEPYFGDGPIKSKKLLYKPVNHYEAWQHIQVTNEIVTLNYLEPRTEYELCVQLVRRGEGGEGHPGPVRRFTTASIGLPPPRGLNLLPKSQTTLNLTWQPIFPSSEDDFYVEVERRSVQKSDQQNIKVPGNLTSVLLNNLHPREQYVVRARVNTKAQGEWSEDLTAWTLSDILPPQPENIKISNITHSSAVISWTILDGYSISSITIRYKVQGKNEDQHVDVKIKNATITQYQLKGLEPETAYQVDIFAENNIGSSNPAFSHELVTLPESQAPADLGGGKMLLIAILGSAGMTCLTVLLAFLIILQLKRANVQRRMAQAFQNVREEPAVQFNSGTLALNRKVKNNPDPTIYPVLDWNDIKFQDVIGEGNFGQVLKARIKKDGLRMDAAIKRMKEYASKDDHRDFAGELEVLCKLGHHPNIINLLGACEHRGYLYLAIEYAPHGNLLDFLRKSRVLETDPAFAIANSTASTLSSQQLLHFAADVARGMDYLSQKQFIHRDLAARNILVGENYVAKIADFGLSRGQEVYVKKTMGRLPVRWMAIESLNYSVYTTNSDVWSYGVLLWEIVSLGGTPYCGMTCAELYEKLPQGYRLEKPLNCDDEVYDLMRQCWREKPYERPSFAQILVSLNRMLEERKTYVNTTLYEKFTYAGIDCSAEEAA

With C=CC(=O)Nc1cccc(C(=O)NC2CCN(Cc3ccc(-c4nc5cc[nH]c(=O)c5cc4-c4ccccc4)cc3)CC2)c1 [30b] the inhibition at 1 µM [1] was 14%, the inhibition at 1 µM [2] was -27% and the inhibition at 1 µM [3] was 6%. It also gave an inhibition at 1 µM [4] of -4%, an inhibition at 1 µM [5] of 14% and an inhibition at 1 µM [6] of 4%. The inhibition at 1 µM [7] was -4% and the inhibition at 1 µM [8] was 30%.
C=CC(=O)Nc1cc(NC(=O)NC2CCN(Cc3ccc(-c4nc5cc[nH]c(=O)c5cc4-c4ccccc4)cc3)CC2)ccc1Cl [compound 27] gave an inhibition at 1 µM [1] of 14%, an inhibition at 1 µM [2] of 12% and an inhibition at 1 µM [3] of 5%. It also gave an inhibition at 1 µM [4] of -1%, an inhibition at 1 µM [5] of 21% and an inhibition at 1 µM [6] of 6%. The inhibition at 1 µM [7] was -14% and the inhibition at 1 µM [8] was 23%.
In the case of C=CC(=O)Nc1ccc2c(c1)n(C1CCN(Cc3ccc(-c4nc5cc[nH]c(=O)c5cc4-c4ccccc4)cc3)CC1)c(=O)n2C [24b], the inhibition at 1 µM [1] is reported as 7%, the inhibition at 1 µM [2] is reported as 3% and the inhibition at 1 µM [3] is reported as 2%. It also gave an inhibition at 1 µM [4] of -5%, an inhibition at 1 µM [5] of 7% and an inhibition at 1 µM [6] of 4%. The inhibition at 1 µM [7] was -3% and the inhibition at 1 µM [8] was 14%.
